Measured values: US8609669B2, “Potassium channel modulators” (AbbVie Inc., priority 2010, dated 2013)

How the values were obtained:
[1] = test system: CCI-induced mechanical allodynia; assay: Chronic constriction injury (CCI) model of neuropathic pain (Bennett model); format: in vivo, Sprague-Dawley rats; conditions: rat CCI, about 30 mg/kg i.p., 30 minutes or more before testing
Text: (§1) Adult male Sprague-Dawley rats (250-300 g body weight, Charles River Laboratories, Portage, Mich.) were used. Animal handling and experimental protocols were approved by the Institutional Animal Care and Use Committee (IACUC) at Abbott Laboratories. For all surgical procedures, animals were maintained under isoflurane anesthesia (4-5% to induce, 1-3% to maintain), and the incision sites were sterilized using a 10% povidone-iodine solution prior to and after surgeries.
(§2) Tactile (mechanical) allodynia was measured using calibrated von Frey filaments (Stoelting, Wood Dale, Ill.) as described in Chaplan, S. R., F. W. Bach, J. M. Pogrel, J. M. Chung and T. L. Yaksh, 1994, Quantitative assessment of tactile allodynia in the rat paw, J. Neurosci. Methods, 53, 55. Rats were placed into inverted individual plastic containers (20×12.5×20 cm) on top of a suspended wire mesh grid, and acclimated to the test chambers for 20 minutes. The von Frey filaments were presented perpendicularly to the plantar surface of the selected hind paw, and then held in this position for approximately 8 seconds with enough force to cause a slight bend in the filament. Positive responses include an abrupt withdrawal of the hind paw from the stimulus, or flinching behavior immediately following removal of the stimulus.
A model of chronic constriction injury-induced (CCI) neuropathic pain was produced by following the method of Bennett and Xie (1988, Pain, 33, 87-107). The right common sciatic nerve was isolated at mid-thigh level, and loosely ligated by 4 chromic gut (5-0) ties separated by an interval of 1 mm. Sham rats can underwent the same procedure, but without sciatic nerve constriction. All animals can be left to recover for at least 2 weeks and no more than 5 weeks prior to testing of mechanical allodynia. Compounds were injected (i.p.) 30 minutes or more before testing.

[2] = test system: SNL-induced tactile allodynia; assay: Spinal nerve ligation (SNL) model of neuropathic pain; format: in vivo, Sprague-Dawley rats; conditions: rat SNL, about 30 mg/kg i.p., 30 minutes or more before testing
Text: as §1
as §2, with “stimulus. […]” for “stimulus.”

[3] = target: T1, KCNQ 2/3 channels (HEK293 cells stably expressing human KCNQ2 and KCNQ3 subunits) (Homo sapiens, UniProt O43525+O43526); assay: KCNQ2/3 channel activation, thallium flux FLIPR assay (BTC-AM dye); format: cell-based; conditions: for Emax: HEK293, maximum response relative to response of retigabine at 10 μM (set at 100%), read-out: Max. %; for EC50: HEK293 cells expressing human KCNQ2 and KCNQ3, FLIPR thallium flux
T1 construct: expressed in transfected cells; host or cells: HEK293
Procedure, shortened: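 HEK293 cells stably expressing human KCNQ2/KCNQ3 were loaded with BTC-AM and exposed to compound for 4 min in pH 7.3 gluconate buffer with ouabain. Thallium flux was triggered with 6 mM TlNO3 and 10 mM K2SO4 (stock additions) and fluorescence (ex 488, em 540 nm) recorded for 3 min. EC50 came from responses over baseline; maximal response is relative to 10 μM retigabine (100%).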

[4] = test system: Capsaicin-induced secondary mechanical hyperalgesia / tactile allodynia; assay: Capsaicin-induced secondary mechanical hypersensitivity; format: in vivo, Sprague-Dawley rats; conditions: rat, about 30 mg/kg i.p., 30 minutes before testing, von Frey
Text: as §1
Rats were allowed to acclimate to the study room for 1 hour. They were then briefly restrained, and capsaicin was administered at 10 μg in 10 μL of vehicle (10% ethanol and 2-hydroxypropyl cyclodextrin) by intraplantar injection into the center of the right hind paw. Secondary mechanical hyperalgesia was measured at the heel away from the site of injection at 180 minutes following capsaicin (Joshi et al., 2006, Neuroscience 143, 587-596). Compounds were injected (i.p.) 30 minutes before testing (150 minutes post-capsaicin).
Tactile (mechanical) allodynia was measured using calibrated von Frey filaments (Stoelting, Wood Dale, Ill.) as described in Chaplan, S. R., F. W. Bach, J. M. Pogrel, J. M. Chung and T. L. Yaksh, 1994, Quantitative assessment of tactile allodynia in the rat paw, J. Neurosci. Methods, 53, 55. […]
Tactile allodynia was measured as described above.

| Emax [3] | EC50 [3] | SMILES | change in paw withdrawal latency versus vehicle [1] | change in paw withdrawal latency versus vehicle [2] | change in paw withdrawal latency versus vehicle [4] |
| --- | --- | --- | --- | --- | --- |
| 119% | 500 to 1000 nM | Cc1ccnc2c(-c3ccc(OC(F)(F)F)cc3)c(NC(=O)Cc3ccc(F)cc3)nn12 [Example 9, 2-(4-fluorophenyl)-N-{7-methyl-3-[4-(trifluoromethoxy)phenyl]pyrazolo[1,5-a]pyrimidin-2-yl}acetamide] | statistically significant change | statistically significant change | – |
| 116% | < 100 nM | Cc1cnc2c(-c3ccc(F)c(C)c3)c(NC(=O)CCC3CCCCC3)nn2c1 [Example 35, 3-cyclohexyl-N-[3-(4-fluoro-3-methylphenyl)-6-methylpyrazolo[1,5-a]pyrimidin-2-yl]propanamide] | statistically significant change | – | – |
| 150% | 100 to 500 nM | O=C(CCC1CCCC1)Nc1nn2cccnc2c1-c1ccc(Cl)cc1 [Example 7, N-[3-(4-chlorophenyl)pyrazolo[1,5-a]pyrimidin-2-yl]-3-cyclopentylpropanamide] | – | statistically significant change | – |
| 7% | > 10000 nM | CC(C)c1c(NC(=O)COC2CCCC2)nn2cccnc12 [Example 133, 2-(cyclopentyloxy)-N-(3-isopropylpyrazolo[1,5-a]pyrimidin-2-yl)acetamide] | – | – | – |
| 122% | 100 to 500 nM | Cc1ccnc2c(-c3ccc(C(F)(F)F)cc3)c(NC(=O)CCC3CCCCC3)nn12 [Example 79, 3-cyclohexyl-N-{7-methyl-3-[4-(trifluoromethyl)phenyl]pyrazolo[1,5-a]pyrimidin-2-yl}propanamide] | – | – | – |
| 18% | 100 to 500 nM | CC(C)c1c(NC(=O)CC(C)(C)C)nn2cccnc12 [Example 113, N-(3-isopropylpyrazolo[1,5-a]pyrimidin-2-yl)-3,3-dimethylbutanamide] | – | – | – |
| 119% | 100 to 500 nM | Cc1cc(C)n2nc(NC(=O)CCC3CC3)c(-c3ccc(Cl)c(C)c3)c2n1 [Example 114, N-[3-(4-chloro-3-methylphenyl)-5,7-dimethylpyrazolo[1,5-a]pyrimidin-2-yl]-3-cyclopropylpropanamide] | – | – | – |
| 143% | < 100 nM | Cc1cnc2c(Cc3ccc(F)cc3)c(NC(=O)CC3CCCC3)nn2c1 [Example 5, 2-cyclopentyl-N-(3-(4-fluorobenzyl)-6-methylpyrazolo[1,5-a]pyrimidin-2-yl)acetamide] | – | – | – |
| 72.3% | > 10000 nM | O=C(Cc1cccnc1)Nc1nn2cccnc2c1-c1ccc(OC(F)(F)F)cc1 [Example 98, 2-(pyridin-3-yl)-N-{3-[4-(trifluoromethoxy)phenyl]pyrazolo[1,5-a]pyrimidin-2-yl}acetamide] | – | – | – |
| 83% | 100 to 500 nM | Cc1cnc2c(-c3ccc(F)c(C)c3)c(NC(=O)C(C)c3ccccc3)nn2c1 (racemic) [Example 176, (±)-N-[3-(4-fluoro-3-methylphenyl)-6-methylpyrazolo[1,5-a]pyrimidin-2-yl]-2-phenylpropanamide] | – | – | – |
| – | – | CC(C)(C)CC(=O)Nc1nn2cccnc2c1-c1ccc(OC(F)(F)F)cc1 [Example 1, 3,3-dimethyl-N-(3-(4-(trifluoromethoxy)phenyl)pyrazolo[1,5-a]pyrimidin-2-yl)butanamide] | statistically significant change | – | statistically significant change |
| 142% | < 100 nM | CC(C)(C)c1c(NC(=O)CCC2CCCCC2)nn2cccnc12 [Example 132, N-(3-tert-butylpyrazolo[1,5-a]pyrimidin-2-yl)-3-cyclohexylpropanamide] | – | – | – |
| 6% | > 10000 nM | Cc1ccccc1-c1c(NC(=O)CC(C)(C)C)nn2cccnc12 [Example 141, 3,3-dimethyl-N-[3-(2-methylphenyl)pyrazolo[1,5-a]pyrimidin-2-yl]butanamide] | – | – | – |
| 132% | 100 to 500 nM | Cc1cnc2c(-c3cccc(F)c3)c(NC(=O)Cc3ccc(F)cc3)nn2c1 [Example 84, 2-(4-fluorophenyl)-N-[3-(3-fluorophenyl)-6-methylpyrazolo[1,5-a]pyrimidin-2-yl]acetamide] | – | – | – |
| 155% | < 100 nM | Cc1cc(C)n2nc(NC(=O)CC3CCCCC3)c(-c3ccccc3)c2n1 [Example 94, 2-cyclohexyl-N-(5,7-dimethyl-3-phenylpyrazolo[1,5-a]pyrimidin-2-yl)acetamide] | – | – | – |
| 65% | 500 to 1000 nM | O=C(CCC1CCCC1)Nc1nn2cccnc2c1-c1ccc(C(F)(F)F)c(F)c1 [Example 88, 3-cyclopentyl-N-{3-[3-fluoro-4-(trifluoromethyl)phenyl]pyrazolo[1,5-a]pyrimidin-2-yl}propanamide] | – | – | – |
| 267% | < 100 nM | Cc1cnc2c(CC(C)(C)C)c(NC(=O)CCC3CCCCC3)nn2c1 [Example 17, 3-cyclohexyl-N-[3-(2,2-dimethylpropyl)-6-methylpyrazolo[1,5-a]pyrimidin-2-yl]propanamide] | – | – | – |
| 67% | 1000 to 10000 nM | CC(C)(C)CC(=O)Nc1nn2cccnc2c1C(C)(C)C [Example 106, N-(3-tert-butylpyrazolo[1,5-a]pyrimidin-2-yl)-3,3-dimethylbutanamide] | – | – | – |
